# According to article PMC3745399, “An NO Donor Approach to Neuroprotective and Procognitive Estrogen Therapy Overcomes Loss of NO Synthase Function and Potentially Thrombotic Risk” (PLoS ONE, 2013):
# Experiments:
# [1] = test system: hippocampal slices from 16-month old male 3×Tg mice; test: LTP in CA1 of hippocampal slices after theta burst stimulation; design: species or system mouse; conditions: hippocampal slices from C57Bl/6 mice; 100 nM; absence of DMA
# Protocol: LTP in the CA1 field of the hippocampus is a well-studied cellular model for learning and memory. […] At 16 months, an advanced age at which Alzheimer's-like neuropathology is well developed in these animals, studies on LTP have not previously been reported. Nevertheless, we observed a robust, reproducible deficit in LTP in these aged transgenic mice, with field excitatory post-synaptic potentials (fEPSP) showing an end fEPSP of 97.0±6.4% of baseline at 45 min post-TBS, compared to 134.7±10.3% observed in the wild type (WT) transgenic background controls (Fig. 3A,B).
# Figure 3 Reversal of LTP deficit in aged 3×Tg mice by SERMs is GPR30 dependent. LTP was measured after TBS in the CA1 region of hippocampal sections from 16 month male 3×Tg mice or WT controls. Test compounds (SERMs 100 nM; G15 100 nM) were added 30 min prior to TBS. […] (C) Secondary analysis of theta bursts indicate action both during induction and stabilization of LTP, through a GPR30 dependent mechanism.
# All experiments used 16-month old male 3×Tg transgenic or age-matched WT background controls. For electrophysiology, mice were rapidly decapitated, and brains were removed into an ice-cold aCSF solution (in mM: NaCl 124, KCl 3.0, KH2PO4 1.25, NaHCO3 25.7, D-glucose 10, L-ascorbate 2.0, MgSO4 2.5, and CaCl2 3.3) and sectioned on a tissue chopper into 400 µm sections. Slices were transported to a 37°C solution of aCSF, continuously bubbled with 95% O2/5% CO2, and allowed to recover at least 60 min before experimentation. After placement of a stimulation electrode in the Schaffer commissural fibers and recording electrodes with 2 M NaCl solution into the stratum radiatum of the CA1 area, stimulus intensity was set to evoke submaximal fEPSP and continuously monitored at 20 s intervals for at least 15 min to establish a stable baseline. SERMs (100 nM) and G15 (100 nM) were prepared fresh in perfusate and started at least 30 min before LTP induction to reach a new baseline after enhancement of basal synaptic transmission was observed. […] Resulting fEPSP was monitored at 20 s intervals for ∼60 min post TBS.
# isolated rings of aortae = test: Aortic ring relaxation; design: species or system rat; conditions: for EC50: Rattus norvegicus, intact aortic rings contracted with phenylepinephrine, mean, S.D., read-out: EC50 for relaxation
# Protocol: Isolated rings of aortae from male Sprague-Dawley rats (250–300 g) were prepared for isometric tension measurements and were equilibrated for 1 h at an optimal resting tension of 10 mN. Tissues were contracted submaximally with 0.3 µM phenylepinephrine, and after 10–15 m cumulative concentration-response curves for SERMs (0.01–30 µM) were obtained. Some aortic ring preparations were denuded of the endothelium, or were treated with 100 µM L-NAME, prior to assessment of SERM-induced relaxation responses.
EC50 (isolated rings of aortae) [µM],Compound,"effect on LTP, compound alone [1]","maximal relaxation response, comparison (isolated rings of aortae; intact aortic rings)",efficacy (maximal relaxation) (isolated rings of aortae; intact aortic rings) [% relaxation]
–,Brc1cc2c(cc1[C@@H]1Nc3ccccc3[C@@H]3C=CC[C@@H]31)OCO2 [G15],without effect,–,–
3.3 ± 2.5,"COc1ccc(-c2sc3cc(O)ccc3c2Oc2ccc(OCCN3CCCCC3)cc2)cc1 [arzoxifene, Arzoxifene]",–,significantly less than those for DMA and raloxifene,–
4 ± 2.9,"O=C(c1ccc(OCCN2CCCCC2)cc1)c1c(-c2ccc(O)cc2)sc2cc(O)ccc12 [raloxifene, Raloxifene]",–,–,~100
